Measurements: patent publication US9896415B2, “Chalcone derivatives having an anti-allergic activity” (UNIVERSITE CLAUDE BERNARD LYON I, priority 2013, dated 2018)
“Also recorded” adds a separate entry of the source. Where two headings read alike, the source gives them in different places.

What was measured:
[1] = tested on: normal human basophils; experiment: Degranulation of normal human basophils after anti-IgE antibody, CD63 and CD203c expression by flow cytometry; assay type: cell-based; conditions: 4 donors; for Emax: Homo sapiens, effect-dose study, 1 to 100 micromolars; for dose effect, CD63 marker / dose effect, CD203c marker: between 1 and 100 micromolars, no plateau effect
Text: The compounds according to the invention have a substantial protective activity towards the degranulation of normal human basophils, such that it may be evaluated by the overexpression of CD203c and of CD63 after exposure to an anti-IgE antibody. In particular, the concentration of the compound according to the invention giving the possibility of obtaining a 50% protective effect (with respect to a value of 100% corresponding to the control achieved in the absence of a compound according to the invention) belongs to the range from 1 to 100 micromolar.
a) Activity on the Degranulation of Normal Human Basophils CD203c and CD 63
This test consists of analyzing with flow cytometry the expression of the membrane markers CD203c and CD63 on normal human basophils. For this blood from healthy donors is exposed to an antibody directed against immunoglobulins E (IgE) which leads to activation and degranulation of the basophils, causing an increase in the expression of CD203c and CD63. […] As the compounds of interest are dissolved in dimethylsulfoxide (DMSO), a control is also produced by incubating the basophils in the presence of DMSO without any active ingredient.

[2] = tested on: asthma model in mice; experiment: Ovalbumin (OVA) asthma model in mice: plethysmography, broncho-alveolar wash and lung cytology; assay type: in vivo; conditions: one day after last OVA challenge; for intrabronchial infiltrate: broncho-alveolar wash; for respiratory function: Penh in response to increasing doses of metacholine: non-invasive plethysmography, i.p. daily
Text: b) Effect on the Respiratory Function in an Asthma Model in Mice
The compounds according to the invention were also subject to tests in vivo. Cromoglycate was used as a reference compound since presently it is the only compound presently marketed having been described as having an effect on the degranulation of basophils.
• The model used is an ovalbumin model (ova). The procedure includes: • 4 weeks of sensitization with ova solubilized in a solution containing alum and injected intra-peritoneally (I-P). • 1 week of challenge with 3 intranasal challenges of ova solubilized in phosphate buffer PBS for 3 subsequent days. • Injections of PBS, of compound (I.1) or of cromoglycate were carried out all along the challenge phase and continued until the date of analysis in an amount of one injection per day intra-peritoneally. • The analyses were carried out 1 and 5 days after the last intranasal challenge. • These analyses comprise:
One Day after the Last Challenge • an analysis the of the respiratory function by non-invasive plethysmography on 10 mice per group. The respiratory function is analysed in response to an increasing dose of metacholine (broncho-constrictor). • recovery and analysis of the broncho-alveolar wash (count of the number of cells, and cytological analysis) on 5 mice. • dissection of the lungs for cytological analysis (microscopic study after staining) on the same 5 mice.
Five Days after the Last Challenge • an analysis of the pulmonary resistance by the forced oscillation technique (invasive method) on the 5 remaining mice of different groups. The pulmonary resistance is analyzed in response to an increasing dose of metacholine (bronchoconstrictor). • recovery and analysis of the broncho-alveolar wash (counting the number of cells, and deposition on a slide by cytospin for cytological analysis) on these 5 mice.
A compound group (1.1) (n=10), an i-cm group (cromoglycate, n=10) and an i-PBS group (n=10).
The compound (I.1) is dissolved in a DMSO solution. This stock solution is then diluted in an ethanol:PBS (vol:vol) solution before intraperitoneal administration.
The Penh (enhanced pause) values, calculated from plethysmography measurements, express the prolongation of the expiratory pause time observed in subjects having a reduction of the bronchial calibre and are correlated with the respiratory resistance. A decrease in the Penh values therefore corresponds to a protective effect towards bronchoconstriction induced by OVA.

[3] = read-out: maximum effect on CD63
[4] = read-out: maximum effect on CD203c
[5] = flow cytometry cytology, compared with PBS group

## COc1cccc(OC)c1/C=C/C(=O)c1c(O)cc(OC)c(C2CCN(C)CC2)c1OC [compound (I.2)]
[1]; [3]
  Emax: 80%
[1]; [4]
  Emax: 40%
[1]
  dose effect, CD63 marker: A dose effect is observed
  dose effect, CD203c marker: A dose effect is observed

## COc1cc(OC)c(/C=C/C(=O)c2c(O)cc(OC)c(C3CCN(C)CC3)c2OC)c(OC)c1 [compound (I.1)]
[2]; compared with PBS group
  intrabronchial infiltrate: significant decrease in the intrabronchial infiltrate
  respiratory function: Penh in response to increasing doses of metacholine: the difference is only significant for the dose at 40 mg/ml; also recorded: improves the respiratory function of the mice
[2]; [5]
  T lymphocytes in the intrabronchial infiltrate: reduction
  eosinophils in the intrabronchial infiltrate: a reduction in the eosinophils
[2]; lungs, flow cytometry cytology
  intra-pulmonary hypereosinophilia: much less substantial
[1]; [3]
  Emax: 80%
[1]; [4]
  Emax: 40%
[1]
  dose effect, CD63 marker: A dose effect is observed
  dose effect, CD203c marker: A dose effect is observed

## O=C(O)c1cc(=O)c2c(OCC(O)COc3cccc4oc(C(=O)O)cc(=O)c34)cccc2o1 [cromoglycate, reference compound]
[2]; compared with PBS group
  intrabronchial infiltrate: does not exhibit any significant difference
  respiratory function: Penh in response to increasing doses of metacholine: same increases in Penh
[2]; [5]
  eosinophils in the intrabronchial infiltrate: does not show any significant reduction in the eosinophil infiltrate

## COc1cc(O)c(C(=O)/C=C/c2c(Cl)cccc2Cl)c(OC)c1C1CCN(C)CC1 [compound (I.3)]
[1]; [3]
  Emax: 80%
[1]; [4]
  Emax: 40%
[1]
  dose effect, CD63 marker: A dose effect is observed
  dose effect, CD203c marker: A dose effect is observed
